# Data taken from patent US20200181671A1, “Method for Increasing Content of Mogroside V in Siraitia Grosvenorii Suspended Cells” (Guilin Layn Natural Ingredients Corp, priority 2017, published 2020).
# Key:
# [1] = system: Siraitia grosvenorii suspended cells; assay: Content of mogroside II in Siraitia grosvenorii suspended cells at the peak of mogroside V, HPLC; format: cell-based; conditions: n = 5, x ± s
# Experimental: (§1) Weighing 1.5 g Siraitia grosvenorii dry weight cells, adding 60% ethanol at a feed to liquid ratio of […], ultrasonically extracting for 40 min, extracting for 2 h at 90° C. in a slightly boiling state, repeating the extraction for 3 times, and combining the extracts to concentrate them to 5 mL in a rotary evaporator. The concentrate was filtered through a 0.22 μm filtration membrane, and then qualitative and quantitative analysis was performed using a high-performance liquid chromatograph.
# Chromatographic conditions: The chromatographic column was a ZORBAX SBC C18 column, 4.6 mm×150 mm; the mobile phase was water-acetonitrile gradient elution (0-25 min, 13.5% to 35% acetonitrile), the flow rate was 0.8 mL/min; and the detection wavelength was 203 nm.
# [2] = system: Siraitia grosvenorii suspended cells; assay: Content (yield) of mogroside V in Siraitia grosvenorii suspended cells under different treatment conditions, HPLC; format: cell-based
# Experimental: as §1, with “feed-to-liquid” for “feed to liquid”
# Chromatographic conditions: The chromatographic column was an inverted C18 column, 4.6 mm×250 mm; the mobile phase was water-acetonitrile at a ratio of 78:22, the flow rate was 1.0 mL/min; and the detection wavelength was 203 nm.
# [3] = system: Taxus chinensis suspended cells; conditions: 100 μmol/L; cited from earlier work
# [4] = system: Siraitia grosvenorii suspended cells; assay: Content (yield) of mogroside V in Siraitia grosvenorii suspended cells under different treatment conditions, HPLC; format: cell-based; conditions: suspended cells in the logarithmic growing period treated with methyl jasmonate alone
# pueraria suspended cells = conditions: 1.0 mg/L; cited from earlier work
# [5] = system: suspension culture cells of Maackia amurensis Rupr. et Maxim; conditions: 200 μmol/L, 9 days; cited from earlier work
# [6] = system: Siraitia Grosvenorii Cell Culture System; conditions: 500 mg/L; cited from earlier work
compound,measurement,setting,value
CC/C=C\CC1C(=O)CCC1CC(=O)OC (stereo not shown) [Comparative Example 4],Content of mogroside II,[1],32.8 ± 2.6 g/L
same,yield of mogroside V per unit time,"[2]; 1 d of culture, n = 5, x ± s",31.1 ± 0.8 g/L
same,yield of mogroside V per unit time,"[2]; 3 d of culture, n = 5, x ± s",32.6 ± 0.9 g/L
same,yield of mogroside V per unit time,"[2]; 5 d of culture, n = 5, x ± s",33.2 ± 1.1 g/L
same,yield of mogroside V per unit time,"[2]; 7 d of culture, n = 5, x ± s",33.5 ± 1.5 g/L
same,yield of mogroside V per unit time,"[2]; 9 d of culture, n = 5, x ± s",39.5 ± 2.0 g/L
same,yield of mogroside V per unit time,"[2]; 11 d of culture, n = 5, x ± s",46.5 ± 1.8 g/L
same,yield of mogroside V per unit time,"[2]; 13 d of culture, n = 5, x ± s",51.6 ± 1.8 g/L
same,yield of mogroside V per unit time,"[2]; 15 d of culture, n = 5, x ± s",53.6 ± 1.5 g/L
same,yield of mogroside V per unit time,"[2]; 17 d of culture, n = 5, x ± s",54.5 ± 1.6 g/L
same,yield of mogroside V per unit time,"[2]; 19 d of culture, n = 5, x ± s",55.7 ± 1.8 g/L
same,yield of mogroside V per unit time,"[2]; 21 d of culture, n = 5, x ± s",56.8 ± 2.0 g/L
same,yield of mogroside V per unit time,"[2]; 23 d of culture, n = 5, x ± s",58.2 ± 2.2 g/L
same,yield of mogroside V per unit time,"[2]; 25 d of culture, n = 5, x ± s",55.2 ± 2.4 g/L
same,yield of mogroside V per unit time,"[2]; 27 d of culture, n = 5, x ± s",51.4 ± 2.5 g/L
same,yield of mogroside V per unit time,"[2]; 29 d of culture, n = 5, x ± s",46.5 ± 2.4 g/L
same,yield of mogroside V per unit time,"[2]; 31 d of culture, n = 5, x ± s",41.2 ± 2.5 g/L
same,Peak yield (maximum yield) of mogroside V,"[2]; maximum over days 1 to 31 of culture, n = 5, x ± s",58.2 ± 2.2 g/L
"CC/C=C\CC1C(=O)CCC1CC(=O)OC (stereo not shown) [methyl jasmonate, Methyl jasmonate]",increase of the content of paclitaxel,[3],10 times
same,total content of mogroside V,"[2]; inducer added alone, compared with the normal culture group, result in words",decreased compared with the normal culture group
same,amount of synthesis of mogroside V per unit time,[2]; suspended cells in the logarithmic growing period treated with methyl jasmonate alone,increased
same,cell browning,[4],cell browning phenomenon was obvious
same,content of puerarin in the cell culture,pueraria suspended cells,increased
same,"content of isoflavone, of that of the control of the same period",[5],417.18%
N[C@@H](Cc1ccccc1)C(=O)O [phenylalanine],increase of the total amount of mogroside V compared with the control group,[6],260.38%
